Experimental data: the supplement of paper PMC5908809

Legend:
[1] = tested on: normal NK cells expanded with K562-aAPC; test: percent inhibition of viability; higher = more inhibition; conditions: 72 h, IL-2 2.5 ng/mL
Description: (§1)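 Drug sensitivity and resistance testing on K562-aAPC-expanded normal NK cells: 5 concentrations (10-fold steps over a 10,000-fold range), 72 h at 37 °C, viability by CellTiter-Glo normalised to DMSO and benzethonium chloride controls; DSS from the fitted curve.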

DERL-7 (IL-2 2.5 ng/mL) [2] = test: as above; conditions: 72 h
IMC-1 (IL-2 20 ng/mL) [3] = test: as above; conditions: 72 h
KAI3 (IL-2 2.5 ng/mL) [4] = test: as above; conditions: 72 h
KHYG-1 (IL-2 2.5 ng/mL) [5] = test: as above; conditions: 72 h
NK-92 (IL-2 2.5 ng/mL) [6] = test: as above; conditions: 72 h
NK-YS (IL-2 2.5 ng/mL) [7] = test: as above; conditions: 72 h
NKL (IL-2 2.5 ng/mL) [8] = test: as above; conditions: 72 h
SNK-6 (IL-2 2.5 ng/mL) [9] = test: as above; conditions: 72 h
YT (IL-2 2.5 ng/mL) [10] = test: as above; conditions: 72 h
[11] = tested on: normal primary NK cells, pool 1 (3 donors) (IL-2 2.5 ng/mL); test: as above; conditions: 72 h
[12] = tested on: normal primary NK cells, pool 1 (3 donors), resting (IL-2 0 ng/mL); test: as above; conditions: 72 h
[13] = tested on: normal primary NK cells, pool 2 (3 donors) (IL-2 2.5 ng/mL); test: as above; conditions: 72 h
[14] = tested on: normal primary NK cells, pool 3 (3 donors) (IL-2 2.5 ng/mL); test: as above; conditions: 72 h
[15] = tested on: normal NK cells expanded with K562-aAPC; test: drug sensitivity score (DSS) (DSS units); higher = more sensitive; extreme values may be limits of the assay; conditions: 72 h; IL-2 2.5 ng/mL
Description: as §1

DERL-7 (IL-2 2.5 ng/mL) [16] = test: as above; conditions: 72 h
IMC-1 (IL-2 20 ng/mL) [17] = test: as above; conditions: 72 h
KAI3 (IL-2 2.5 ng/mL) [18] = test: as above; conditions: 72 h
KHYG-1 (IL-2 2.5 ng/mL) [19] = test: as above; conditions: 72 h
NK-92 (IL-2 2.5 ng/mL) [20] = test: as above; conditions: 72 h
NK-YS (IL-2 2.5 ng/mL) [21] = test: as above; conditions: 72 h
NKL (IL-2 2.5 ng/mL) [22] = test: as above; conditions: 72 h
SNK-6 (IL-2 2.5 ng/mL) [23] = test: as above; conditions: 72 h
YT (IL-2 2.5 ng/mL) [24] = test: as above; conditions: 72 h
[25] = tested on: normal primary NK cells, pool 1 (3 donors) (IL-2 2.5 ng/mL); test: as above; conditions: 72 h
[26] = tested on: normal primary NK cells, pool 1 (3 donors), resting (IL-2 0 ng/mL); test: as above; conditions: 72 h
[27] = tested on: normal primary NK cells, pool 2 (3 donors) (IL-2 2.5 ng/mL); test: as above; conditions: 72 h
[28] = tested on: normal primary NK cells, pool 3 (3 donors) (IL-2 2.5 ng/mL); test: as above; conditions: 72 h

CNC(=O)c1cc(COc2nnc(Nc3ccc(Cl)cc3)c3ccoc23)ccn1 [Telatinib] (max concentration tested 10000 nM)
percent inhibition of viability [%]
Conditions	1 nM	10 nM	100 nM	1000 nM	10000 nM
DERL-7 (IL-2 2.5 ng/mL) [2]	-7.49	-0.52	-1.32	7.55	16.5
IMC-1 (IL-2 20 ng/mL) [3]	-1.29	6.77	10.7	6.73	6.92
KAI3 (IL-2 2.5 ng/mL) [4]	-1.15	-3.17	-1.98	4.4	17.6
KHYG-1 (IL-2 2.5 ng/mL) [5]	-4.25	1.6	0.07	3.62	17.2
NK-92 (IL-2 2.5 ng/mL) [6]	-14.3	7.86	8.96	9.44	25.7
NK-YS (IL-2 2.5 ng/mL) [7]	-3.24	-3.74	3.78	6.85	18
NKL (IL-2 2.5 ng/mL) [8]	4.45	8.77	17.6	24.9	37.5
SNK-6 (IL-2 2.5 ng/mL) [9]	-6.76	-18.2	-10.9	-17.2	39.8
YT (IL-2 2.5 ng/mL) [10]	-6.03	-1.57	0.93	8.01	8.35
[1]	-1.26	-3.44	0.95	10.9	8.85
[11]	-11.3	3.32	6.19	3.83	4.17
[12]	-33.8	-3.86	0.16	-3.05	3.2
[13]	-8.51	7.4	6.24	-6.6	-0.18
[14]	-12.1	2.04	1.9	-5.46	-0.21

Conditions	drug sensitivity score
DERL-7 (IL-2 2.5 ng/mL) [16]	1
IMC-1 (IL-2 20 ng/mL) [17]	0.48
KAI3 (IL-2 2.5 ng/mL) [18]	0.91
KHYG-1 (IL-2 2.5 ng/mL) [19]	0.8
NK-92 (IL-2 2.5 ng/mL) [20]	1.85
NK-YS (IL-2 2.5 ng/mL) [21]	0.7
NKL (IL-2 2.5 ng/mL) [22]	7.2
SNK-6 (IL-2 2.5 ng/mL) [23]	1.33
YT (IL-2 2.5 ng/mL) [24]	0
[15]	0.23
[25]	0
[26]	0
[27]	0
[28]	0
